Source: patent US20240208912A1 (Mirati Therapeutics, Inc., priority 2021, published 2024)
Read-outs that look alike come from different tables or passages of the source.

Tests used:
[1] = test system: HCT116 homozygous MTAP knockout cells; assay: Proliferation assay (CellTiter-Glo, 10 days) in HCT116 homozygous MTAP knockout cells; assay type: cell-based; conditions: CellTiter-Glo after 10 days of treatment, read-out: Proliferation IC50 (nM) HCT116 MTAP_KO
Method in brief: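 CellTiter-Glo viability read on day 11 gives a 10-day IC50. Dosing began one day after seeding, with a 1:10 split into fresh drug-containing medium on day 6. Cells are HCT116 lacking both MTAP alleles via CRISPR/Cas9, run alongside the parental line.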

[2] = test system: PRMT5-dependent Symmetric Di-methyl Arginine signal in HCT116 homozygous MTAP Knockout cells; assay: SYM11 In-Cell Western in HCT116 homozygous MTAP knockout cells; assay type: cell-based; conditions: 4 days of treatment, SYM11/DRAQ5 ratio as percent of DMSO control, read-out: In-cell-Western (SYM11) IC50 (nM) HCT116 MTAP_KO
Protocol: HCT116 cells were genetically engineered to knock out the function of both MTAP alleles using a CRISPR/Cas9 system and an sgRNA targeting the MTAP gene. Following Cas9/MTAP sgRNA transduction, clones were screened to confirm that each allele of the MTAP gene had been inactivated (i.e., homozygous MTAP knock out) creating an MTAP-deficient cell.
Control samples were analyzed in parallel.
Briefly, on Day 0, 2,000 HCT116 parental or HCT116 homozygous MTAP knockout cells were seeded in 96 well plates in McCoy's 5A supplemented with 10% fetal bovine serum and pen/strep and the cells were incubated overnight at 37° C. plus 5% CO2. The following day, cells were treated with DMSO vehicle control or a dose response of PRMT5 inhibitors, and incubated at 37° C. plus 5% CO^2 for four days.
After 4 days of treatment, the cells were fixed by adding 50 μl of 4% paraformaldehyde solution to each well and the cells were incubated for 20 min at room temperature. The paraformaldehyde solution was removed, 150 μl of ice-cold methanol was added and the plate was placed −20° C. for 10 minutes. The methanol was removed, 150 μl of Odyssey Blocking buffer+0.05% Tween20 was added and the plate was incubated at room temperature with shaking for one hour.
The primary SYM11 antibody solution was removed by aspiration and the wells were washed three consecutive times with phosphate buffered saline containing 0.1% Tween-20 (PBST).
The secondary antibody solution was removed by aspiration and the wells were washed three consecutive times with PBST.
The SYM11 signal and the DRAQ5 signal were quantified using a Li-Cor Odyssey machine reading at […], respectively. The SYM11/DRAQ5 ratio was used to calculate the inhibition of Symmetric Dimethyl Arginine as percent of DMSO control.

PRMT5/MEP50 complex = target: T1, PRMT5/MEP50 complex (Homo sapiens, UniProt O14744); assay: PRMT5:MEP50 HotSpot Assay (full-length histone H2A substrate, plus and minus MTA); assay type: biochemical; conditions: IC50 + 2 μM MTA, in the presence of 2 μM MTA
T1 construct: purchased Reaction Biology Corporation
Method in brief: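 Tritiated product on full-length recombinant H2A was counted by scintillation after the stopped reaction was captured on filter paper. Substrate is histone H2A; conditions include plus and minus MTA.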

T1 sequence (O14744 2-637 limits assumed): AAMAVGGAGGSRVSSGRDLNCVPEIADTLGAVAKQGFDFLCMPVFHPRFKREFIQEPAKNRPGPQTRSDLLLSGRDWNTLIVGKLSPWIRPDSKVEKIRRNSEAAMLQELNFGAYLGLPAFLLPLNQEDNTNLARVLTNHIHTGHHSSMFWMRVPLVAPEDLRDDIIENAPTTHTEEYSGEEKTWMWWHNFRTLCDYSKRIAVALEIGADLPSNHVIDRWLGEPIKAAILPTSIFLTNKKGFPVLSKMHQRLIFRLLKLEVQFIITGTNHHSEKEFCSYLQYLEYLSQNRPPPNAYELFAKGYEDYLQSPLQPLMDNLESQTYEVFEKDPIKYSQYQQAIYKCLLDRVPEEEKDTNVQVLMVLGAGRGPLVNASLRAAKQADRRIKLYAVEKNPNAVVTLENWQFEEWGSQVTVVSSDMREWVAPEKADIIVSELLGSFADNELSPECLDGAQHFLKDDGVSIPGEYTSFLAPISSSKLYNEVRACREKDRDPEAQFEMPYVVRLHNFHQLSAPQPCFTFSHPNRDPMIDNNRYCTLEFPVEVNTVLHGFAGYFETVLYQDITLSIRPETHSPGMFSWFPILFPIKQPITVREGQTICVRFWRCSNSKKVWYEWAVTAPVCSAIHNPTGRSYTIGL
T1 sequence (Q9BQA1 2-342 partner limits assumed): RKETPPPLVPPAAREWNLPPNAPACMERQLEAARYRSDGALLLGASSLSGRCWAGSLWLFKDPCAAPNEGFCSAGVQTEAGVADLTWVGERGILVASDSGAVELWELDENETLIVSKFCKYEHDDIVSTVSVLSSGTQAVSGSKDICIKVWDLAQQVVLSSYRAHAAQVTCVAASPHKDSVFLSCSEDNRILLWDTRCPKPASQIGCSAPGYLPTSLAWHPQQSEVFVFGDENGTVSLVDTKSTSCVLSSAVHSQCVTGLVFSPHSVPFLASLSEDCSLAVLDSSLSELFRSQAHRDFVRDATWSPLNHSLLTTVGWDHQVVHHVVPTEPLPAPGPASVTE

IC50 [1] [nM] | IC50 ([2]; Homo sapiens, HCT-116, 96 h) [nM] | IC50 (PRMT5/MEP50 complex) [nM] | IC50 [2] [nM] | Structure (SMILES)
51 | 11 | 304 |  | Cc1cc(-c2cnn(C)c2-c2c(F)ccc(OC3CC3)c2C#N)cc2c(CN)n[nH]c(=O)c12 (atropisomer, axis not shown; (P)) [Example 16-47, (P)-2-[4-[4-(aminomethyl)-8-methyl-1-oxo-2H-phthalazin-6-yl]-2-methyl-pyrazol-3-yl]-6-(cyclopropoxy)-3-fluoro-benzonitrile]
77 |  | 260 | 57 | Cn1ncc(-c2cc(Cl)c3c(=O)[nH]nc(CN)c3c2)c1-c1c(F)ccc(OC2CC2)c1C#N (atropisomer, axis not shown; (P)) [Example 16-55, (P)-2-[4-[4-(aminomethyl)-8-chloro-1-oxo-2H-phthalazin-6-yl]-2-methyl-pyrazol-3-yl]-6-(cyclopropoxy)-3-fluoro-benzonitrile]
2850 |  | 994 | 272 | Cn1ncc(-c2ccc3c(=O)[nH]nc(CN)c3c2)c1-c1c(C#N)cc2ccccc2c1Cl (single isomer, unassigned) [Example 16-5]
64 |  | 28 | 20 | Cn1ncc(-c2ccc3c(=O)[nH]nc(CN)c3c2)c1-c1c(C#N)cc2ccccc2c1Cl (single isomer, unassigned) [Example 16-6]
307 |  | 248 | 93 | Cn1ncc(-c2ccc3c(=O)[nH]nc(CN)c3c2)c1-c1c(F)c(Cl)c2ccccc2c1C#N (single isomer, unassigned) [Example 16-9, (P)-2-[4-[4-(aminomethyl)-1-oxo-2H-phthalazin-6-yl]-2-methyl-pyrazol-3-yl]-4-chloro-3-fluoro-naphthalene-1-carbonitrile]
10 |  | 15.8 | 3 | Cn1ncc(-c2ccc3c(=O)[nH]nc(CN)c3c2)c1-c1c(F)c(Cl)c2ccccc2c1C#N (single isomer, unassigned) [Example 16-10, (M)-2-[4-[4-(aminomethyl)-1-oxo-2H-phthalazin-6-yl]-2-methyl-pyrazol-3-yl]-4-chloro-3-fluoro-naphthalene-1-carbonitrile]
33 |  | 95 | 17 | Cc1cc(-c2cnn(C)c2-c2c(F)cc3ccccc3c2C#N)cc2c(CN)n[nH]c(=O)c12 (single isomer, unassigned) [Example 16-15, (P)-2-[4-[4-(aminomethyl)-8-methyl-1-oxo-2H-phthalazin-6-yl]-2-methyl-pyrazol-3-yl]-3-fluoro-naphthalene-1-carbonitrile]
6 |  | 13.6 | 6 | Cc1cc(-c2cnn(C)c2-c2c(F)cc3ccccc3c2C#N)cc2c(CN)n[nH]c(=O)c12 (single isomer, unassigned) [Example 16-16, (M)-2-[4-[4-(aminomethyl)-8-methyl-1-oxo-2H-phthalazin-6-yl]-2-methyl-pyrazol-3-yl]-3-fluoro-naphthalene-1-carbonitrile]
290 |  | 640 | 246 | Cc1c(F)c(-c2c(-c3cc(C)c4c(=O)[nH]nc(CN)c4c3)cnn2C)c(C#N)c2ccccc12 (single isomer, unassigned) [Example 16-41, (P)-2-[4-[4-(aminomethyl)-8-methyl-1-oxo-2H-phthalazin-6-yl]-2-methyl-pyrazol-3-yl]-3-fluoro-4-methyl-naphthalene-1-carbonitrile]
7 |  | 4.55 | 6 | Cc1c(F)c(-c2c(-c3cc(C)c4c(=O)[nH]nc(CN)c4c3)cnn2C)c(C#N)c2ccccc12 (single isomer, unassigned) [Example 16-42, (M)-2-[4-[4-(aminomethyl)-8-methyl-1-oxo-2H-phthalazin-6-yl]-2-methyl-pyrazol-3-yl]-3-fluoro-4-methyl-naphthalene-1-carbonitrile]
